Measured values as given in patent US20220064196A1, “EGFR Inhibitors, Compositions and Methods Thereof” (Betta Pharmaceuticals Co., Ltd., priority 2019, published 2022).
pIC50: −log10 of the molar value. Where two headings read alike, the source gives them in different places.

Columns and labels:
[1] = biological target: EGFR Del19/T790M/C797S (Homo sapiens, UniProt P00533, T790M/C797S, form not given); experiment: Kinase assay (mobility shift), EGFR Del19/T790M/C797S; format: biochemical
Procedure: (§1) Test 1 Kinase Assay for EGFR Del19/T790M/C797S and EGFR Wildtype
(§2) Enzyme reaction protocol are as follows:
(§3) 1. Preparing 1* Kinase buffer as followed.
(§4) 2. Preparing Compound Concentration Gradient: Compounds were tested at a concentration of 300 nM, diluted to 100-fold final concentration in 100% DMSO solution in 96-well plates, and compounds were diluted 3 times with Precision, 10 concentrations. Each concentration of the compound was then further diluted to a 5-fold final concentration of the intermediate dilution solution using 1* Kinase buffer.
(§5) 3.5 μL of each of the prepared intermediate dilution compounds was separately added to the compound wells of the 384-well plate, and each concentration was tested for duplicate wells; 5 μL of 5% DMSO was added to the negative control wells and the positive control wells, respectively.
(§6) 4. 2.5-fold final concentration of the kinase solution was prepared using 1*Kinase buffer.
(§7) 5. Add 10 μL of 2.5-fold final concentration of kinase solution to the compound well and positive control well; add 10 μL of 1*Kinase buffer to the negative control well.
(§8) 6. Centrifuge at 1000 rpm for 30 seconds, shake the reaction plate and incubate for 10 minutes at room temperature.
(§9) 7. A mixed solution of 2.5 times the final concentration of ATP and Kinase substrate (5-FAM-EEPLYWSFPAKKK-CONH2) was prepared using 1*Kinase buffer.
(§10) 8. 10 μL of a 2.5-fold final concentration of a mixed solution of ATP and a substrate was added to initiate the reaction.
(§11) 9. Centrifuge the 384-well plate at 1000 rpm for 30 seconds, mix by shaking, and incubate at room temperature for the corresponding time.
(§12) 10. Add 30 μL of the stop solution to stop the kinase reaction, centrifuge at 1000 rpm for 30 seconds, and mix by shaking.
(§13) 11. Read the conversion rate with Caliper EZ Reader.
(§14) Convert conversion values to inhibition values:
(§15) Percent inhibition 32 (max-conversion)/(max-min)*100.
(§16) “max” stands for the mean value of the positive control well ratio; “min” stands for the mean value of the negative control well.
(§17) Fit the data in log(inhibitor) vs. response Variable slope of GraphPad Prism 5 to obtain IC50 values.
(§18) Equation used is: Y=Bottom+(Top-Bottom)/(1+(IC50/X)^HillSlope)

[2] = test system: A431 (WT); experiment: A431 cells proliferation assay (CellTiter Glo); format: cell-based; details: Homo sapiens, A-431; cell proliferation, 72 h
Outline: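 Wild-type A431 cells seeded at 5000/well in DMEM/10% FBS were exposed 72 h at 37° C to compound at 10000 nM top, 3-fold down to 1.5 nM, in 0.5% DMSO. Viability by CellTiter-Glo luminescence; IC50 from four-parameter nonlinear regression.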

[3] = biological target: EGFR L858R/T790M/C797S (Homo sapiens, UniProt P00533, C797S/L858R/T790M); experiment: Kinase assay (mobility shift), EGFR L858R/T790M/C797S; format: biochemical
[4] = biological target: Ba/F3-L858R/T790M/C797S (Homo sapiens, UniProt P00533, T790M/C797S/L858R, cells depend on it); experiment: Ba/F3-L858R/T790M/C797S cells proliferation assay (CellTiter Glo); format: cell-based; details: cell proliferation, 72 h, read-out: Ba/F3-L858R/T790M/C797S IC50
Outline: (§19)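 Ba/F3 cells carrying EGFR Del19/T790M/C797S or L858R/T790M/C797S seeded at 2000 cells/well and exposed 72 h at 37 °C to compound (1000 nM top, 3-fold series, 0.5% DMSO). Viability read by CellTiter-Glo luminescence; IC50 from four-parameter non-linear regression.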

[5] = biological target: EGFR WT (Homo sapiens, UniProt P00533); experiment: Kinase assay (mobility shift), EGFR wildtype; format: biochemical; details: top concentration 300 nM
Procedure: as §1, §2, §3, §4, §5, §6, §7, §8, §9, §10, §11, §12, §13, §14, §15, §16, §17, §18

[6] = biological target: Ba/F3-Del19/T790M/C797S (Homo sapiens, UniProt P00533, T790M/C797S, cells depend on it, form not given); experiment: Ba/F3-Del19/T790M/C797S cells proliferation assay (CellTiter Glo); format: cell-based; details: cell proliferation, 72 h, read-out: Ba/F3-Del19/T790M/C797S IC50
Outline: as §19

[7] = Pharmacokinetic assay, oral administration; format: in vivo; details: rat, male SD rats, plasma
Outline: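 Male SD rats (n=3), dosed by oral gavage after overnight fast (≥12 h pre- to 4 h post-dose). Orbital plasma sampled 15 min–24 h, assayed by LC-MS/MS; parameters from non-compartmental analysis.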

[8] = p.o. 5 mg/kg, formulation differs per row
[9] = p.o. 10 mg/kg, formulation 5% DMSO/5% Solutol/90% normal saline

EGFR L858R/T790M/C797S, sequence (P00533 25-1210 T790M/C797S/L858R): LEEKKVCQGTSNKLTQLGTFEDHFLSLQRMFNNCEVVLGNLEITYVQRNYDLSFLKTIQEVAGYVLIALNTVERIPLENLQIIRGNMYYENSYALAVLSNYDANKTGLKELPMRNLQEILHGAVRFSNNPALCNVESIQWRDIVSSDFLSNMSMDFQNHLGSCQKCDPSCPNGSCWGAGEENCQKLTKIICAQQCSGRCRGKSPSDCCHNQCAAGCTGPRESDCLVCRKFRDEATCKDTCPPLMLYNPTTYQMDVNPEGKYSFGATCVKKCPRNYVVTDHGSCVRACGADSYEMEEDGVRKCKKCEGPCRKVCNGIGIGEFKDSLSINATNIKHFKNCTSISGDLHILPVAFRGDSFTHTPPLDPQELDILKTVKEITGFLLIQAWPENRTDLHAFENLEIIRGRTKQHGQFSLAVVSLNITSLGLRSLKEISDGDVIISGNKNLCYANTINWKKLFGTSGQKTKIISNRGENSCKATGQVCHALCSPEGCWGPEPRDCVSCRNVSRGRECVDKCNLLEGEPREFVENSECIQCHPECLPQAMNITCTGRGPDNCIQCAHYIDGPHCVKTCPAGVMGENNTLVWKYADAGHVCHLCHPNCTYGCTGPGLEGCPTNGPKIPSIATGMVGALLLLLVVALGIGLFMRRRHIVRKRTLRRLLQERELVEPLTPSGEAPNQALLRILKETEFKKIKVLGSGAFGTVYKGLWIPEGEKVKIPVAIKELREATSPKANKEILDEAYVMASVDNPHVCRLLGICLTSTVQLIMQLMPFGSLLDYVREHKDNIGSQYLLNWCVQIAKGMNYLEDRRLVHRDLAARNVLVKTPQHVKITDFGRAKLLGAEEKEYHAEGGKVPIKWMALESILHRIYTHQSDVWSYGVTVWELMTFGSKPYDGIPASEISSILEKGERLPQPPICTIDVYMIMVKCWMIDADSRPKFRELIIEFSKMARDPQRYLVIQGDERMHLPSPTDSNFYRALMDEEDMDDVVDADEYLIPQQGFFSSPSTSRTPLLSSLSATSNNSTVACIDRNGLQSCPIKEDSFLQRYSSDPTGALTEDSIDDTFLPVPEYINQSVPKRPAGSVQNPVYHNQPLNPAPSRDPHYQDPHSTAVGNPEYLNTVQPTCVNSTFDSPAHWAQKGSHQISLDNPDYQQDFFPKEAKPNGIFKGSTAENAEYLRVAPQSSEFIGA
Ba/F3-Del19/T790M/C797S, sequence (P00533 with tags, fused parts or gaps DEL746-750/T790M/C797S, form open): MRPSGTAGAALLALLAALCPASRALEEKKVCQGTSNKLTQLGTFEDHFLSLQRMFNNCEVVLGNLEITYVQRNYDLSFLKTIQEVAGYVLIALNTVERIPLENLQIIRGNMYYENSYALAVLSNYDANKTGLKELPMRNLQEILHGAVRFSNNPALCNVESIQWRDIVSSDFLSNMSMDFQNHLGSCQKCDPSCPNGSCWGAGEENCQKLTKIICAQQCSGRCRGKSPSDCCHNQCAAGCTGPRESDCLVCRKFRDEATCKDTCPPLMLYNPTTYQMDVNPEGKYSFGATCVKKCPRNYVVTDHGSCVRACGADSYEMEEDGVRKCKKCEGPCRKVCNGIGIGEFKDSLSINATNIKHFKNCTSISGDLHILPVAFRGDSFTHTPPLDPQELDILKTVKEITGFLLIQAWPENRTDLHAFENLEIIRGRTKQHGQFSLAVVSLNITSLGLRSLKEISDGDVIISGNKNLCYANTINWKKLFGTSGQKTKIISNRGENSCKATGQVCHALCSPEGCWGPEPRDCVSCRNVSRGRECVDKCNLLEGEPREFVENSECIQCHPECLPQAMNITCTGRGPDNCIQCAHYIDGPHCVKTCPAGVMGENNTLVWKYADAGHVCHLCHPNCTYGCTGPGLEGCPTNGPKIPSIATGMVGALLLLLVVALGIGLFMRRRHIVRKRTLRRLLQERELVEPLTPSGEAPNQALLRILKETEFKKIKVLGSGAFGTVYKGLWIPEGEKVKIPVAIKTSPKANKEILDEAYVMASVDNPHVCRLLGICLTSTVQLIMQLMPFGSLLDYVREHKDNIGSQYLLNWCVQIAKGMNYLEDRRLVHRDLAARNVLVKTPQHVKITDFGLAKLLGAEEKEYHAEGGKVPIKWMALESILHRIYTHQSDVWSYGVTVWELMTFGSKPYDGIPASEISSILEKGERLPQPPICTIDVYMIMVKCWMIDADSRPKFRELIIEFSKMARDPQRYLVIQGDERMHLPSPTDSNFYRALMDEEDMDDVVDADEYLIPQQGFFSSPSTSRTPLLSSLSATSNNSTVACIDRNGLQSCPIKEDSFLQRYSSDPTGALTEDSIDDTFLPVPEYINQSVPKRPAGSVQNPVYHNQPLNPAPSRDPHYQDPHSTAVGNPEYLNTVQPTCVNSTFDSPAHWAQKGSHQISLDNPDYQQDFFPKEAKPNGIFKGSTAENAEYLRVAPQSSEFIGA
EGFR Del19/T790M/C797S, sequence (P00533 with tags, fused parts or gaps DEL746-750/T790M/C797S, form open): as above
Ba/F3-L858R/T790M/C797S, sequence (P00533 whole entry T790M/C797S/L858R): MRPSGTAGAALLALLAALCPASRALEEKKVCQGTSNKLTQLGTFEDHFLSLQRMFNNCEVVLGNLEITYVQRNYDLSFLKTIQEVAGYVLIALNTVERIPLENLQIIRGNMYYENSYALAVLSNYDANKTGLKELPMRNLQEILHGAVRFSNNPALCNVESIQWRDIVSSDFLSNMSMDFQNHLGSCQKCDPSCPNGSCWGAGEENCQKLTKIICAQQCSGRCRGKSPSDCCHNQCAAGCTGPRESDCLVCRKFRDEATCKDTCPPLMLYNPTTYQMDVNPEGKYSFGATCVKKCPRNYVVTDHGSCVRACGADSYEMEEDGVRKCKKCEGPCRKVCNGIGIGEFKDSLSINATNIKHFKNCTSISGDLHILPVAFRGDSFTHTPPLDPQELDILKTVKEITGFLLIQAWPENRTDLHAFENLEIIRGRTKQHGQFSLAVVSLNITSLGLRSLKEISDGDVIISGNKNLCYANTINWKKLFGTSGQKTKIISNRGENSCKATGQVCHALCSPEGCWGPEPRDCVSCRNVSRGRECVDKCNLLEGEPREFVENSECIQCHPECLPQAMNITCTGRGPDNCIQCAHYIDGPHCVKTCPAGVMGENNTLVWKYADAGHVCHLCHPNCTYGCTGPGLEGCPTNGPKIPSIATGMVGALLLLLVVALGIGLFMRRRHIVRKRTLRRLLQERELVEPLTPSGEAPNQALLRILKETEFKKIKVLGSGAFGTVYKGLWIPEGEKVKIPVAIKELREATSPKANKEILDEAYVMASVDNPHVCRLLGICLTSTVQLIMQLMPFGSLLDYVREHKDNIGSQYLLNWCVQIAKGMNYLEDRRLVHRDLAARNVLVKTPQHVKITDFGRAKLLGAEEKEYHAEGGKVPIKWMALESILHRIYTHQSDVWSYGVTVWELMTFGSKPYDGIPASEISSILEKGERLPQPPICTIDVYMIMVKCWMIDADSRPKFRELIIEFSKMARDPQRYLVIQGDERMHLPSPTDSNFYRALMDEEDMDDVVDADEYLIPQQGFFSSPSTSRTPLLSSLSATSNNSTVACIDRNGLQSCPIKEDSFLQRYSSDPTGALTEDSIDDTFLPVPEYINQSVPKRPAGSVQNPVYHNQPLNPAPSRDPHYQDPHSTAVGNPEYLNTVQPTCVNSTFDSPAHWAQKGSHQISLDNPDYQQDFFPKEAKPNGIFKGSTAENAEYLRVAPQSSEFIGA

Structure (SMILES)	pIC50 [1]	pIC50 [2]	pIC50 ([3]; numeric values)	GI50 ([4]; numeric values) [nM]	pIC50 [5]	GI50 ([6]; numeric values) [nM]	AUC(0-t) [7, 8] [ng·h/mL]	Cmax [7, 8] [ng/mL]	Tmax [7, 8] [h]	half-life [7, 8] [h]	GI50 ([4]; class symbols) [nM]	GI50 ([6]; class symbols) [nM]	AUC(0-t) [7, 9] [ng·h/mL]	Cmax [7, 9] [ng/mL]	Tmax [7, 9] [h]	half-life [7, 9] [h]	pIC50 ([3]; class symbols)
Cc1cc(Nc2ncc(Cl)c(Nc3ccccc3P(C)(C)=O)n2)ccc1N1CCC2(CC1)CC(N)C2 [Example 14, (2-((2-((4-(2-amino-7-azaspiro[3.5]nonan-7-yl)-3-methylphenyl)amino)-5-chloropyrimidin-4-yl)amino)phenyl)dimethylphosphine oxide]	9.51	7.76	8.92	15.1	7.57	13.2	–	–	–	–	–	–	–	–	–	–	–
Cc1cc(Nc2ncc(Cl)c(Nc3ccccc3P(C)(C)=O)n2)ccc1N1CC2(CCC(NC3CC3)CC2)C1 [Example 4, (2-((5-chloro-2-((4-(7-(cyclopropylamino)-2-azaspiro[3.5]nonan-2-yl)-3-methylphenyl)amino)pyrimidin-4-yl)amino)phenyl)dimethylphosphine oxide]	9.00	7.57	8.82	–	7.68	–	1020	71.3	6	6.27	10 to 50	≤ 10	–	–	–	–	–
Cc1cc(Nc2ncc(Cl)c(Nc3ccccc3P(C)(C)=O)n2)ccc1N1CC2(CCC(N(C)C)CC2)C1 [Example 1, (2-((5-chloro-2-((4-(7-(dimethylamino)-2-azaspiro[3.5]nonan-2-yl)-3-methylphenyl)amino)pyrimidin-4-yl)amino)phenyl)dimethylphosphine oxide]	9.05	7.31	–	6	7.37	5.8	–	–	–	–	–	–	1540	141	1.67	6.53	≥ 8.70
